In data set [1] the test system is MGC-803. Briefly: Antiproliferative activity against human MGC-803 cells assessed as inhibition of cell growth incubated for 24 to 72 hrs by SRB assay. In kind it is functional, cell-based. The conditions noted are these: dose 0.25-8 µM, time 24-72 hrs, DDE = dose-dependent effect. Background: The SRB assay estimates cell density from bound dye.
The test system of data set [2] is HGC-27. Nature of the data set: Inhibition of colony formation in human HGC-27 cells incubated for 24 hrs with fresh medium replacement for every two days measured for 11 days by crystal voilet staining based assay. The conditions noted are these: dose 0.5-2 µM, time 11.0 day, DDE = dose-dependent effect. In kind it is functional, cell-based.
For data set [3], the system named is HGC-27. Nature of the data set: Induction of mitochondrial membrane depolarization in human HGC-27 cells incubated for 48 hrs by flow cytometry analysis. In kind it is functional, cell-based. The conditions noted are these: dose 1-4 µM, DDE = dose-dependent effect. Background: A flow cytometer gives signals particle by particle.
Data set [4] deals with MGC-803. Briefly: Induction of apoptosis in human MGC-803 cells assessed as increase in cleaved caspase 3 protein expression level at 1 to 4 uM incubated for 48 hrs by Western blot analysis. The class given is functional, cell-based. The conditions noted are these: dose 1-4 µM.
Data set [5] has as its system HGC-27. Nature of the data set: Induction of apoptosis in human HGC-27 cells assessed as increase in cleaved caspase 7 protein expression level at 1 to 4 uM incubated for 48 hrs by Western blot analysis. The conditions noted are these: dose 1-4 µM. In kind it is functional, cell-based. (In general: Immunoblotting shows a protein as a band on a membrane.)
Data set [6] has as its system MGC-803. Briefly: Induction of cell cycle arrest in human MGC-803 cells assessed as accumulation of cells at S phase at 2 uM incubated for 36 hrs by PI staining based flow cytometry analysis (reference value: 20.5%). The class given is functional.
Data set [7] relates to HGC-27. Briefly: Induction of cell cycle arrest in human HGC-27 cells assessed as accumulation of cells at G2/M phase at 1 uM incubated for 36 hrs by PI staining based flow cytometry analysis (reference value: 26.2%). The class given is functional.
For data set [8], the system named is HGC-27. Briefly: Induction of cell cycle arrest in human HGC-27 cells assessed as accumulation of cells at G2/M phase at 2 uM incubated for 36 hrs by PI staining based flow cytometry analysis (reference value: 26.2%). The class given is functional.
In data set [9] the test system is HGC-27. Briefly: Induction of cell cycle arrest in human HGC-27 cells assessed as accumulation of cells at S phase at 4 uM incubated for 36 hrs by PI staining based flow cytometry analysis (reference value: 8.87%). In kind it is functional.
Data set [10] relates to HGC-27. Briefly: Induction of cell cycle arrest in human HGC-27 cells assessed as decrease in p-cdc25c level at 1 to 4 uM by Western blot analysis. The conditions noted are these: dose 1-4 µM. In kind it is functional, cell-based.
The test system of data set [11] is HGC-27. Nature of the data set: Activation of ROS/JNK signalling in human HGC-27 cells assessed as increase in p-MKK4 level by Western blot analysis. In kind it is cell-based. The conditions noted are these: filed as activator, dose 1-4 µM, DDE = dose-dependent effect.
For data set [12], the system named is HGC-27. Briefly: Induction of DNA damage in human HGC-27 cells assessed as increase in gamma-H2AX generation incubated for 48 hrs by Western blot analysis. The conditions noted are these: DDE = dose-dependent effect. The class given is functional, cell-based.
In data set [13] the test system is MGC-803. Nature of the data set: Induction of DNA damage in human MGC-803 cells assessed as increase in p-Chk generation incubated for 48 hrs by Western blot analysis. In kind it is functional, cell-based. The conditions noted are these: DDE = dose-dependent effect.
Data set [14] deals with HGC-27. Briefly: Induction of DNA damage in human HGC-27 cells assessed as increase in p-Chk generation incubated for 48 hrs by Western blot analysis. In kind it is functional, cell-based. The conditions noted are these: DDE = dose-dependent effect.
Data set [15] can be described thus: Toxicity in BALB/c mouse xenografted with human MGC-803 cells assessed as effect on creatinine level at 10 to 20 mg/kg, ip administered once every two days. The conditions noted are these: in vivo, dose 10-20 mg/kg. The class given is organism-based.
The nature of data set [16]: Toxicity in BALB/c mouse xenografted with human MGC-803 cells assessed as effect on AST level at 10 to 20 mg/kg, ip administered once every two days. The conditions noted are these: in vivo, dose 10-20 mg/kg. The class given is organism-based.
The nature of data set [17]: Toxicity in BALB/c mouse xenografted with human MGC-803 cells assessed as effect on kidney at 10 to 20 mg/kg, ip administered once every two days measured after 15 days by H and E staining based assay. In kind it is organism-based. The conditions noted are these: in vivo, 360 h, dose 10-20 mg/kg, time 15 day.
A short description of data set [18]: Toxicity in BALB/c mouse xenografted with human MGC-803 cells assessed as effect on spleen at 10 to 20 mg/kg, ip administered once every two days measured after 15 days by H and E staining based assay. The class given is organism-based. The conditions noted are these: in vivo, 360 h, dose 10-20 mg/kg, time 15 day.

Structures are written as SMILES. The source made the active and inactive calls. The rule behind the calls is not given here.

`Cc1ccc(NC2=CC(=O)c3nc4n(c3C2=O)[C@H]2OC[C@@H](O)[C@H]2OC4)cc1C`: the Activity entry in the data set with MGC-803 [1] is “Dde”; in the data set on HGC-27 [3] it was “Dde”; in the data set with MGC-803 [6] it was 39.3%; in the data set with HGC-27 [7], 28.8%; with HGC-27 [8], 32.3%; in the data set on HGC-27 [9], 14.4%. Further, the Activity result is “Dde” in the data set with HGC-27 [11]; “Dde” with HGC-27 [12]; “Dde” with MGC-803 [13]; “Dde” in the data set with HGC-27 [14]; “Non-Toxic” in data set [15]; “Non-Toxic” in data set [16]. Besides, the Activity entry in data set [17] and in data set [18] was “Non-Toxic” in each case. For the same compound, the inhibition result in the data set on HGC-27 [2] was “Dde”. Further, the result in the data set on MGC-803 [4], in the data set with HGC-27 [5] and with HGC-27 [10] was Active.
